Experimental data published in US20120295907A1, “INSECTICIDAL COMPOUNDS” (SYNGENTA CROP PROTECTION, LLC, priority 2009, published 2012).

What was measured:
Type in all cases: in vivo
[1] = test system: Tetranychus urticae; test: Tetranychus urticae (Two-Spotted Spider Mite) bean leaf disc spray test; details: foliar, 192 h, 200 ppm spray on bean leaf discs, mite populations of mixed ages, 8 days, egg, larval and adult mortality, read-out: control of Tetranychus urticae
[2] = test system: Thrips tabaci; test: Thrips tabaci (Onion Thrips) sunflower leaf disc spray test; details: foliar, 168 h, 200 ppm spray on sunflower leaf discs, population of mixed ages, 7 days, mortality
[3] = test system: Spodoptera littoralis; test: Spodoptera littoralis (Egyptian Cotton Leafworm) cotton leaf disc spray test; details: foliar, 72 h, 200 ppm spray on cotton leaf discs, L1 larvae, mortality, feeding behavior, growth regulation 3 DAT
[4] = test system: Plutella xylostella; test: Plutella xylostella (Diamond Back Moth) artificial diet MTP test; details: 144 h, 200 ppm (concentration in well 18 ppm), L2 larvae, 6 days, larval mortality, growth regulation
[5] = test system: Diabrotica balteata; test: Diabrotica balteata (Corn Root Worm) artificial diet MTP test; details: 120 h, 200 ppm (concentration in well 18 ppm), L2 larvae, 5 days, larval mortality, growth regulation
[6] = test system: Heliothis virescens; test: Heliothis virescens (Tobacco Budworm) egg test on artificial diet; details: 96 h, 200 ppm (concentration in well 18 ppm), eggs 0-24 h old on artificial diet, 4 days, egg mortality, larval mortality, growth regulation

Measured: pest or weed control at 200 ppm

CCc1cc(C(F)(C(F)(F)F)C(F)(F)C(F)(F)F)cc(C)c1NC(=O)c1cccc(NC(=O)c2cccc([N+](=O)[O-])c2C)c1OC (centres unmarked) [A2, N-[2-ethyl-4-(1,2,2,3,3,3-hexafluoro-1-trifluoromethylpropyl)-6-methylphenyl]-3-(2-methyl-3-nitrobenzoylamino)-2-methoxybenzamide]
≥ 80%: [1] | [2] | [3] | [4]

CCc1cc(C(F)(C(F)(F)F)C(F)(F)C(F)(F)F)cc(C)c1NC(=O)c1cccc(NC(=O)c2ccc(C#N)cc2C)c1OC (centres unmarked) [A5, N-[2-ethyl-4-(1,2,2,3,3,3-hexafluoro-1-trifluoromethylpropyl)-6-methyl-phenyl]-3-(4-cyano-2-methylbenzoylamino)-2-methoxybenzamide]
not listed: [6]
≥ 80%: all other assays above

CCc1cc(C(F)(C(F)(F)F)C(F)(F)C(F)(F)F)cc(C)c1NC(=O)c1cccc(NC(=O)c2cccnc2Cl)c1OC (centres unmarked) [A6]
≥ 80%: all assays above

CCc1cc(C(F)(C(F)(F)F)C(F)(F)C(F)(F)F)cc(C)c1NC(=O)c1cccc(NC(=O)c2cccnc2F)c1OC (centres unmarked) [A7]
≥ 80%: all assays above

COc1c(NC(=O)c2ccc(C#N)cc2C)cccc1C(=O)Nc1c(Cl)cc(C(F)(C(F)(F)F)C(F)(F)C(F)(F)F)cc1Br (centres unmarked) [B1, N-[2-bromo-6-chloro-4-(1,2,2,3,3,3-hexafluoro-1-trifluoromethylpropyl)-phenyl]-3-(4-cyano-2-methylbenzoylamino)-2-methoxybenzamide]
not listed: [5]
≥ 80%: all other assays above

COc1c(NC(=O)c2ccc(Br)c(C)c2)cccc1C(=O)Nc1c(Cl)cc(C(F)(C(F)(F)F)C(F)(F)C(F)(F)F)cc1Br (centres unmarked) [B65]
not listed: [5]
≥ 80%: all other assays above

COc1c(NC(=O)c2cc(F)ccc2Cl)cccc1C(=O)Nc1c(Cl)cc(C(F)(C(F)(F)F)C(F)(F)C(F)(F)F)cc1Br (centres unmarked) [B154]
not listed: [6]
≥ 80%: all other assays above

COc1c(NC(=O)c2c(F)cccc2F)cccc1C(=O)Nc1c(Cl)cc(C(F)(C(F)(F)F)C(F)(F)C(F)(F)F)cc1Br (centres unmarked) [B172]
not listed: [5]
≥ 80%: all other assays above

COc1c(NC(=O)c2c(F)cc(C#N)cc2F)cccc1C(=O)Nc1c(Cl)cc(C(F)(C(F)(F)F)C(F)(F)C(F)(F)F)cc1Br (centres unmarked) [B176]
not listed: [5]
≥ 80%: all other assays above

COc1c(NC(=O)c2ccc([N+](=O)[O-])c(C)c2)cccc1C(=O)Nc1c(Cl)cc(C(F)(C(F)(F)F)C(F)(F)C(F)(F)F)cc1Br (centres unmarked) [B190]
not listed: [5]
≥ 80%: all other assays above

COc1c(NC(=O)c2ccc([N+](=O)[O-])cc2F)cccc1C(=O)Nc1c(Cl)cc(C(F)(C(F)(F)F)C(F)(F)C(F)(F)F)cc1Br (centres unmarked) [B191]
not listed: [5]
≥ 80%: all other assays above

COc1c(NC(=O)c2ccco2)cccc1C(=O)Nc1c(Cl)cc(C(F)(C(F)(F)F)C(F)(F)C(F)(F)F)cc1Cl (centres unmarked) [C12]
not listed: [2]
≥ 80%: all other assays above

COc1c(NC(=O)c2ccc(C(F)(F)F)cc2)cccc1C(=O)Nc1c(Cl)cc(C(F)(C(F)(F)F)C(F)(F)C(F)(F)F)cc1Cl (centres unmarked) [C15]
not listed: [5]
≥ 80%: all other assays above

COc1c(NC(=O)c2cc(F)c(C#N)cc2F)cccc1C(=O)Nc1c(Cl)cc(C(F)(C(F)(F)F)C(F)(F)F)cc1Cl [E24]
not listed: [2]
≥ 80%: all other assays above

COc1c(NC(=O)c2ccccc2F)cccc1C(=O)Nc1c(C)cc(C(F)(C(F)(F)F)C(F)(F)C(F)(F)F)cc1C (centres unmarked) [F1]
not listed: [2]
≥ 80%: all other assays above

COc1c(NC(=O)c2ccc(Cl)cc2Cl)cccc1C(=O)Nc1c(C)cc(C(F)(C(F)(F)F)C(F)(F)C(F)(F)F)cc1C (centres unmarked) [F15]
not listed: [2]
≥ 80%: all other assays above

COc1c(NC(=O)c2ccc(S(C)(=O)=O)cc2)cccc1C(=O)Nc1c(C)cc(C(F)(C(F)(F)F)C(F)(F)C(F)(F)F)cc1C (centres unmarked) [F18]
not listed: [2]
≥ 80%: all other assays above

COc1c(NC(=O)c2ccc([N+](=O)[O-])cc2C)cccc1C(=O)Nc1c(C)cc(C(F)(C(F)(F)F)C(F)(F)C(F)(F)F)cc1C (centres unmarked) [F24]
not listed: [2]
≥ 80%: all other assays above

COc1c(NC(=O)c2c(F)cc(F)cc2F)cccc1C(=O)Nc1c(C)cc(C(F)(C(F)(F)F)C(F)(F)C(F)(F)F)cc1C (centres unmarked) [F25]
not listed: [2]
≥ 80%: all other assays above

COc1c(NC(=O)c2ccc(F)cc2C)cccc1C(=O)Nc1c(C)cc(C(F)(C(F)(F)F)C(F)(F)C(F)(F)F)cc1C (centres unmarked) [F27]
not listed: [2]
≥ 80%: all other assays above

COc1c(NC(=O)c2ccc(C#N)cc2C)cccc1C(=O)Nc1c(Cl)cc(C(F)(C(F)(F)F)C(F)(F)F)cc1Br [G1]
not listed: [2]
≥ 80%: all other assays above

COc1c(NC(=O)c2ccc(C#N)cc2Cl)cccc1C(=O)Nc1c(Cl)cc(C(F)(C(F)(F)F)C(F)(F)F)cc1Br [G2]
not listed: [2]
≥ 80%: all other assays above

COc1c(NC(=O)c2ccc(C#N)cc2C)cccc1C(=O)Nc1c(C)cc(C(F)(C(F)(F)F)C(F)(F)F)cc1C [K4]
not listed: [2]
≥ 80%: all other assays above
